Measured values as given in patent US20060265137A1, “Methods to increase the capacity of high content cell-based screening assays” (Cellomics, Inc., priority 2001, published 2006).

Assays:
NFkB and ERK = assay: Primary high content screen, green channel: cytoplasm to nucleus translocation of NFkB and ERK (pooled reporter set); assay type: cell-based; details: Swiss 3T3 cells, 30 minutes treatment, ALEXA FLUOR 488 secondary antibodies, versus negative controls, FIG. 5
Description: (§1) 1. Cytoplasm to nuclear translocation: (A preferred embodiment of the method is described in detail in U.S. Pat. No. 5,989,835) A nuclear image is acquired and preferably thresholded to create a nuclear mask. A cytoplasmic image is created using either the nuclear image or the fluorescent signals from the fluorescent reporter molecules in the reporter set. Preferably, a cytoplasmic mask is created. Translocation of the fluorescent reporter molecules in an appropriate reporter set(s) between the nucleus and cytoplasm can then be determined by detecting fluorescent signals in the nuclear mask and cytoplasmic mask in the presence and absence of the one or more test compounds.
(§2) In this example, two reporter sets were used, each containing two fluorescent reporter molecules. The first reporter set consisted of ALEXA FLUOR® 488 conjugated secondary antibodies (Molecular Probes, Inc.), which both emit fluorescence detectable in the green channel. These secondary antibodies were used to bind to primary antibodies against extracellular (signal) regulated kinase (ERK) (Cell Signaling Technologies, Inc.) and Nf-kB (Zymed, Inc.). The second reporter set consisted of ALEXA FLUOR® 568 conjugated secondary antibodies (Molecular Probes, Inc.) which both emit fluorescence detectable in the red channel. These secondary antibodies were used to bind to primary antibodies against c-jun and p38.
(§3) In this experiment, the transcription factors under investigation translocate from the cytoplasm to the nucleus upon activation. Therefore, the fluorescent reporter molecules, which indirectly bind to the transcription factors, can be used to monitor the distribution of the transcription factors within the cell. However, each reporter reports on a different cellular event (i.e.: ERK translocation, Nf-kB translocation, c-jun translocation, and p38 translocation).
(§4) Swiss 3T3 cells in EMEM culture medium were plated in 96 well plates, at a plating density of 3,500 cells per well, and allowed to incubate overnight. […]

p38 and c-jun = assay: Primary high content screen, red channel: cytoplasm to nucleus translocation of p38 and c-jun (pooled reporter set); assay type: cell-based; details: Swiss 3T3 cells, 30 minutes treatment, ALEXA FLUOR 568 secondary antibodies, FIG. 6
Description: as §1, §2, §3, §4

Compound	translocation in the green channel (NFkB and ERK; difference between cytoplasm and nuclear localization) (NFkB and ERK)	translocation in the red channel (p38 and c-jun) (p38 and c-jun)
CCCCCCCCCCCCCC(=O)O[C@@H]1[C@@H](C)[C@@]2(O)[C@@H](C=C(CO)C[C@]3(O)C(=O)C(C)=C[C@@H]23)[C@@H]2C(C)(C)[C@]12OC(C)=O [PMA]	both NFkB and ERK specific translocations can be observed	increase in translocation for p38 and c-jun
COc1ccc(C[C@H]2NC[C@H](O)[C@H]2OC(C)=O)cc1 [anisomysin]	no effect on translocation in the green channel over negative controls	increase in translocation for p38 and c-jun
TNF	both NFkB and ERK specific translocations can be observed	not
